According to ChEMBL document CHEMBL5715949, “Discovery of a selective irreversible BMX inhibitor for prostate cancer” (ACS Chem Biol, 2013):
pIC50: −log10 of the molar value. Activity calls are given as the source filed them. No cut-off for these calls is given here.

How the values were obtained:
[1] = biological target: Dual specificity mitogen-activated protein kinase kinase 2 (Homo sapiens) (UniProt P36507); experiment: Inhibition of MEK2 (unknown origin) assessed as remaining activity at 1 uM by Kinome scan method relative to control
BaF3 [2] = experiment: Antiproliferative activity against mouse BaF3 cells expressing TEL-fused BMX Cys496Ser assessed growth inhibition incubated for 2 to 5 days by CellTiter-Glo assay; assay type: functional, cell-based
[3] = biological target: TGF-beta receptor type-1 (Homo sapiens) (UniProt P36897); experiment: Inhibition of TGFBR1 (unknown origin) assessed as remaining activity at 1 uM by Kinome scan method relative to control
[4] = biological target: AP2-associated protein kinase 1 (Homo sapiens) (UniProt Q2M2I8); experiment: Inhibition of AAK1 (unknown origin) assessed as remaining activity at 1 uM by Kinome scan method relative to control
BaF3 [5] = experiment: Antiproliferative activity against mouse BaF3 cells expressing TEL-fused BMX assessed growth inhibition incubated for 2 to 5 days by CellTiter-Glo assay; assay type: functional, cell-based
RV-1 [6] = experiment: Down regulation of BMX protein expression in human RV-1 cells expressing BMX C496S mutant at 5 uM incubated for 72 hrs by western blot analysis; assay type: functional, cell-based
RV-1 [7] = experiment: Inhibition of MAPK signalling pathway in human RV-1 cells assessed as decrease in ERK1/2 phosphorylation at T202/204 residue at 2.5 uM incubated for 4 hrs by immunoblot analysis; assay type: cell-based
[8] = biological target: Tyrosine-protein kinase CSK (Homo sapiens) (UniProt P41240); experiment: Inhibition of CSK (unknown origin) assessed as remaining activity at 1 uM by Kinome scan method relative to control
[9] = biological target: Interleukin-1 receptor-associated kinase 4 (Homo sapiens) (UniProt Q9NWZ3); experiment: Inhibition of IRAK4 (unknown origin) assessed as remaining activity at 1 uM by Kinome scan method relative to control
[10] = biological target: Activin receptor type-2A (Homo sapiens) (UniProt P27037); experiment: Inhibition of ACVR2A (unknown origin) assessed as remaining activity at 1 uM by Kinome scan method relative to control
RV-1 [11] = experiment: Antiproliferative activity against human RV-1 cells assessed as reduction in cell viability at 500 to 2500 nM incubated for 5 days in presence of <25 nM MK2206 by CellTiter-Glo assay; assay type: functional, cell-based; conditions: dose 500-2500 nM, time 5.0 day
BaF3 [12] = experiment: Antiproliferative activity against mouse BaF3 cells expressing TEL-fused TYK2 […] mutant assessed growth inhibition incubated for 2 to 5 days by CellTiter-Glo assay; assay type: functional; conditions: time 2-5 day
[13] = biological target: BDNF/NT-3 growth factors receptor (Homo sapiens) (UniProt Q16620); experiment: Inhibition of TRKB (unknown origin) assessed as remaining activity at 1 uM by Kinome scan method relative to control
[14] = biological target: Cyclin-G-associated kinase (Homo sapiens) (UniProt O14976); experiment: Inhibition of GAK (unknown origin) assessed as remaining activity at 1 uM by Kinome scan method relative to control
RV-1 [15] = experiment: Antiproliferative activity against human RV-1 cells assessed as reduction in cell viability at 500 to 2500 nM incubated for 5 days in presence of Torin2 by CellTiter-Glo assay; assay type: functional, cell-based; conditions: dose 500-2500 nM, time 5.0 day
[16] = test system: Tyrosine-protein kinase ABL1 (Homo sapiens), P00519 [F317I]; experiment: Inhibition of ABL1 F317I mutant (unknown origin) assessed as remaining activity at 1 uM by Kinome scan method relative to control
[17] = biological target: Serine/threonine-protein kinase TAO2 (Homo sapiens) (UniProt Q9UL54); experiment: Inhibition of TAOK2 (unknown origin) assessed as remaining activity at 1 uM by Kinome scan method relative to control
RV-1 [18] = experiment: Antiproliferative activity against human RV-1 cells assessed as reduction in cell viability at 500 to 2500 nM incubated for 5 days in presence of AZD8055 by CellTiter-Glo assay; assay type: functional, cell-based; conditions: dose 500-2500 nM, time 5.0 day
[19] = biological target: Phosphorylase b kinase gamma catalytic chain, liver/testis isoform (Homo sapiens) (UniProt P15735); experiment: Inhibition of PHKG2 (unknown origin) assessed as remaining activity at 1 uM by Kinome scan method relative to control
[20] = biological target: Bone morphogenetic protein receptor type-2 (Homo sapiens) (UniProt Q13873); experiment: Inhibition of BMPR2 (unknown origin) assessed as remaining activity at 1 uM by Kinome scan method relative to control
[21] = biological target: Receptor-interacting serine/threonine-protein kinase 1 (Homo sapiens) (UniProt Q13546); experiment: Inhibition of RIPK1 (unknown origin) assessed as remaining activity at 1 uM by Kinome scan method relative to control
[22] = Inhibition of PI3K/AKT/mTOR signalling pathway in human RV-1 cells assessed as decrease in PRAS40 phosphorylation at T246 residue at 2.5 uM incubated for 4 hrs by immunoblot analysis; assay type: cell-based
[23] = biological target: Serine/threonine-protein kinase PAK 1 (Homo sapiens) (UniProt Q13153); experiment: Inhibition of PAK1 (unknown origin) assessed as remaining activity at 1 uM by Kinome scan method relative to control
[24] = test system: Mast/stem cell growth factor receptor Kit (Homo sapiens), P10721 [D816V]; experiment: Inhibition of KIT D816V mutant (unknown origin) assessed as remaining activity at 1 uM by Kinome scan method relative to control
[25] = biological target: RAC-gamma serine/threonine-protein kinase (Homo sapiens) (UniProt Q9Y243); experiment: Inhibition of AKT3 (unknown origin) assessed as remaining activity at 1 uM by Kinome scan method relative to control
[26] = biological target: STE20-like serine/threonine-protein kinase (Homo sapiens) (UniProt Q9H2G2); experiment: Inhibition of SLK (unknown origin) assessed as remaining activity at 1 uM by Kinome scan method relative to control
[27] = biological target: Serine/threonine-protein kinase 16 (Homo sapiens) (UniProt O75716); experiment: Inhibition of STK16 (unknown origin) assessed as remaining activity at 1 uM by Kinome scan method relative to control
[28] = biological target: Myosin light chain kinase family member 4 (Homo sapiens) (UniProt Q86YV6); experiment: Inhibition of MYLK4 (unknown origin) assessed as remaining activity at 1 uM by Kinome scan method relative to control
[29] = biological target: Mitogen-activated protein kinase 4 (Homo sapiens) (UniProt P31152); experiment: Inhibition of ERK4 (unknown origin) assessed as remaining activity at 1 uM by Kinome scan method relative to control
[30] = Inhibition of PI3K/AKT/mTOR signalling pathway in human RV-1 cells assessed as decrease in AKT phosphorylation at S473 residue at 2.5 uM incubated for 4 hrs by immunoblot analysis; assay type: cell-based
[31] = biological target: Mitogen-activated protein kinase kinase kinase 11 (Homo sapiens) (UniProt Q16584); experiment: Inhibition of MLK3 (unknown origin) assessed as remaining activity at 1 uM by Kinome scan method relative to control
DU-145 = experiment: Antiproliferative activity against human DU-145 cells assessed growth inhibition incubated for 2 to 5 days by CellTiter-Glo assay; assay type: functional; conditions: time 2-5 day
[32] = biological target: Serine/threonine-protein kinase 4 (Homo sapiens) (UniProt Q13043); experiment: Inhibition of MST1 (unknown origin) assessed as remaining activity at 1 uM by Kinome scan method relative to control
Serine/threonine-protein kinase 4 (Homo sapiens), sequence (Q13043 whole entry): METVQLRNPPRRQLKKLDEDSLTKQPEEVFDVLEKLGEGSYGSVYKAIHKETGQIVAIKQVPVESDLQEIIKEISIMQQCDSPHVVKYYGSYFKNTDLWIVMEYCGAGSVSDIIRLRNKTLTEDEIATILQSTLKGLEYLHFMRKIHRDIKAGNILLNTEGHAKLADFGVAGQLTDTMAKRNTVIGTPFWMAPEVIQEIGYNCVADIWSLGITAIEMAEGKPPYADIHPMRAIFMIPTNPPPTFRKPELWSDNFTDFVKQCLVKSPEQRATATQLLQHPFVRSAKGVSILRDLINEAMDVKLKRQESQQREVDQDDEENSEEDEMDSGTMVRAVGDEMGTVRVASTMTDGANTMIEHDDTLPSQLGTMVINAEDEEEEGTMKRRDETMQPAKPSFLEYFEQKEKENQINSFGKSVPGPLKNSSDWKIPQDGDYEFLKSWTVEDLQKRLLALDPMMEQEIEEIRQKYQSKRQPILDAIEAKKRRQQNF

Mast/stem cell growth factor receptor Kit (Homo sapiens), P10721 [D816V], sequence (P10721 whole entry D816V): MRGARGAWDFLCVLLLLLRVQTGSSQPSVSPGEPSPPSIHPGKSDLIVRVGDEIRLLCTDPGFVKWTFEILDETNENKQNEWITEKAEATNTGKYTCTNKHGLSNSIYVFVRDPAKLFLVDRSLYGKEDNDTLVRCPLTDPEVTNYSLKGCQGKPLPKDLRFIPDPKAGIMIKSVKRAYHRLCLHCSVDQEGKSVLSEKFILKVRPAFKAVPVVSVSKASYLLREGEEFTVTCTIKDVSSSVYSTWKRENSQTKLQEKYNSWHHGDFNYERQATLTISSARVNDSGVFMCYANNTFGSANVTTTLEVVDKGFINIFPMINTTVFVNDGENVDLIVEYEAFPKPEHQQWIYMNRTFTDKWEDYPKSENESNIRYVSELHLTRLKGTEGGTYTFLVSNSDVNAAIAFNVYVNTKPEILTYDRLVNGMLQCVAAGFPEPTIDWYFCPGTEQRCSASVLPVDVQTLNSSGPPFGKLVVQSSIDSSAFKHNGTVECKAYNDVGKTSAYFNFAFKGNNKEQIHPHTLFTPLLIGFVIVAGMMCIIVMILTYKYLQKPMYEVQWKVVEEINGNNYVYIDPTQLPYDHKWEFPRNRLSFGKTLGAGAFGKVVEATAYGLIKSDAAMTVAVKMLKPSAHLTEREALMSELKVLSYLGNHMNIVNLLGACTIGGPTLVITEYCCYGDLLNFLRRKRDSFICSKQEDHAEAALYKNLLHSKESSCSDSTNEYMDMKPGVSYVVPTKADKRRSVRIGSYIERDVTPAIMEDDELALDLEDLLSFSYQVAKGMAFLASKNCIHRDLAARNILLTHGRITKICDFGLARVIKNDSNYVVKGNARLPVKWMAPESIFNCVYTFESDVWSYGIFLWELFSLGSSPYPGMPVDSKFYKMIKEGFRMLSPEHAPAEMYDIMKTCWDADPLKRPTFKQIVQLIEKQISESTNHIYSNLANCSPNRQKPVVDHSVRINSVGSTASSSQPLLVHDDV
Mitogen-activated protein kinase kinase kinase 11 (Homo sapiens), sequence (Q16584 whole entry, looked up): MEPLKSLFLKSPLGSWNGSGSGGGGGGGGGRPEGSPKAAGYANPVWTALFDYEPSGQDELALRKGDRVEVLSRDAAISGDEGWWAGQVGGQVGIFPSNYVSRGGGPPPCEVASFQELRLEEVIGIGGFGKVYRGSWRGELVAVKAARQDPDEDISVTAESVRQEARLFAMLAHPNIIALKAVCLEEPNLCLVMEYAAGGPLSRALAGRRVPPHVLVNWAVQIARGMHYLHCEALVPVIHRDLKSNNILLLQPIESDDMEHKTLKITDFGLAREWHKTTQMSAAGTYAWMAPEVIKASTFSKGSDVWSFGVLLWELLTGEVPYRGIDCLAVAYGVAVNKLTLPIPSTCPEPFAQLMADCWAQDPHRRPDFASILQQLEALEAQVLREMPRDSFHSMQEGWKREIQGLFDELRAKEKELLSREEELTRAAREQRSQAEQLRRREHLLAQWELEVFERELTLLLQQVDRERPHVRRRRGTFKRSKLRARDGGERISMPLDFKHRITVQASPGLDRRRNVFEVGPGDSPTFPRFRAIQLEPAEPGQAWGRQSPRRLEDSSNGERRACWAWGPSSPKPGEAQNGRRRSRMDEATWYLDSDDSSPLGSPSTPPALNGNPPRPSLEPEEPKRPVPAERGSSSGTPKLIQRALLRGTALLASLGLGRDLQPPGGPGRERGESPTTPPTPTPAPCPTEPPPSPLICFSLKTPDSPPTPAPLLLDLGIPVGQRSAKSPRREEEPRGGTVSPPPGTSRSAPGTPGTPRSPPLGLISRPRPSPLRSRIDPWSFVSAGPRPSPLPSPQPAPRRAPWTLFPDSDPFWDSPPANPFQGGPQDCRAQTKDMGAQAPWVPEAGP
Mitogen-activated protein kinase 4 (Homo sapiens), sequence (P31152 whole entry): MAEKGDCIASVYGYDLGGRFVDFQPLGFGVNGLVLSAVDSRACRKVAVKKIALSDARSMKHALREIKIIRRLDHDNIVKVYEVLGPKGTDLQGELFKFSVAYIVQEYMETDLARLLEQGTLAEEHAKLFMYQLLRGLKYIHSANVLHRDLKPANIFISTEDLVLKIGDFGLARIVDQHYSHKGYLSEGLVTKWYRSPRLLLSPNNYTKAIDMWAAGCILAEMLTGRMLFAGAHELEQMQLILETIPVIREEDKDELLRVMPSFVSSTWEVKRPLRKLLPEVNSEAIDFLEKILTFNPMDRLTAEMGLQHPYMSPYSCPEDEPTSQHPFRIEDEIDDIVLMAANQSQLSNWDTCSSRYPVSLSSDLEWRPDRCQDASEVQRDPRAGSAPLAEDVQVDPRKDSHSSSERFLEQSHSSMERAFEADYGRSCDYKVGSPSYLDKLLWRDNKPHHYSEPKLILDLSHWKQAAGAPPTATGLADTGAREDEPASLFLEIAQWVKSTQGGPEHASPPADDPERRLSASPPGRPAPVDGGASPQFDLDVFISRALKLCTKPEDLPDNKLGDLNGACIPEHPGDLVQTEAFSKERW
Phosphorylase b kinase gamma catalytic chain, liver/testis isoform (Homo sapiens), sequence (P15735 whole entry, canonical isoform): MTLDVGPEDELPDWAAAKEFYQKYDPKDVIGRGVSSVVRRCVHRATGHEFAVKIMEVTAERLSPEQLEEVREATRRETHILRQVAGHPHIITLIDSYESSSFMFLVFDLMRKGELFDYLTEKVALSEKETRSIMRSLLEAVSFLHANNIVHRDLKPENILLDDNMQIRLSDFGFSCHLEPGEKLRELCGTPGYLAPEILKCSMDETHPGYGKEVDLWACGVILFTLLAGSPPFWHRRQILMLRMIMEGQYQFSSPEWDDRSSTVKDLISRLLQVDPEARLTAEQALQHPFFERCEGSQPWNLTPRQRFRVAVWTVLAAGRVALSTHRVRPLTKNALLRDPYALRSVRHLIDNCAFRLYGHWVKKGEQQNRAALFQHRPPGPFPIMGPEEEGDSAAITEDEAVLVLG
Myosin light chain kinase family member 4 (Homo sapiens), sequence (Q86YV6 whole entry): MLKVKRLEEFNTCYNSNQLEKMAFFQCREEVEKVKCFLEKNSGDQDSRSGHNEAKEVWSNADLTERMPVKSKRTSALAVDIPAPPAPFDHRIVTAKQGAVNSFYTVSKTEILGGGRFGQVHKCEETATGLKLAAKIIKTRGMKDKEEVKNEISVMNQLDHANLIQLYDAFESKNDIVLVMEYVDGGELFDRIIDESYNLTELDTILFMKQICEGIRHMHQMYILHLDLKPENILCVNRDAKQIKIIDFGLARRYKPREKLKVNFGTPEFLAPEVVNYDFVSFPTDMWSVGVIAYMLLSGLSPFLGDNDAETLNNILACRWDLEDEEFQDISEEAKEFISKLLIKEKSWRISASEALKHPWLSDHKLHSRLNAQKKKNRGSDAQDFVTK
Dual specificity mitogen-activated protein kinase kinase 2 (Homo sapiens), sequence (P36507 whole entry, the tested form may be a part): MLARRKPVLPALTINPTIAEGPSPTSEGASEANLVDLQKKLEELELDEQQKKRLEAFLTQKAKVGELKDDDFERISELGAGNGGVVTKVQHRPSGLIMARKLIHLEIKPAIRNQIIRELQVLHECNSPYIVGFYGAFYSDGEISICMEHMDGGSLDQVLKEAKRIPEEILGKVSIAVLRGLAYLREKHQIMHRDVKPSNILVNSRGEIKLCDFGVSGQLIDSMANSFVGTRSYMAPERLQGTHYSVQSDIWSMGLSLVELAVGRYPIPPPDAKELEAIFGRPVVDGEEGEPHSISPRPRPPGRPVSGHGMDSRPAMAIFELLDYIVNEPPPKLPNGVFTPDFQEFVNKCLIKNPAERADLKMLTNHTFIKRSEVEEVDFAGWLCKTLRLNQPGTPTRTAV
Interleukin-1 receptor-associated kinase 4 (Homo sapiens), sequence (Q9NWZ3 whole entry): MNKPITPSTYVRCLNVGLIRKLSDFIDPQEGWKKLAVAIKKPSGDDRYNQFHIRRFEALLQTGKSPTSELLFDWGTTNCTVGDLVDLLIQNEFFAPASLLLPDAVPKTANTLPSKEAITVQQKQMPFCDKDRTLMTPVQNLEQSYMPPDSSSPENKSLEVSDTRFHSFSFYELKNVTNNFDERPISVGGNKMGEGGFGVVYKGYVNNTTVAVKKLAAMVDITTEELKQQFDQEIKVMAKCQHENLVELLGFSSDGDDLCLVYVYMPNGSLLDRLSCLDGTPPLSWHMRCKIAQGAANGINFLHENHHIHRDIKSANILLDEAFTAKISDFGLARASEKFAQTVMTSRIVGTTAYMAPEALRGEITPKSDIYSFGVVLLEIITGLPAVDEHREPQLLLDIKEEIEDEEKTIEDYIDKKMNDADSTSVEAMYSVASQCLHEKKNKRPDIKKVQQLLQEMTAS
Serine/threonine-protein kinase 16 (Homo sapiens), sequence (O75716 whole entry): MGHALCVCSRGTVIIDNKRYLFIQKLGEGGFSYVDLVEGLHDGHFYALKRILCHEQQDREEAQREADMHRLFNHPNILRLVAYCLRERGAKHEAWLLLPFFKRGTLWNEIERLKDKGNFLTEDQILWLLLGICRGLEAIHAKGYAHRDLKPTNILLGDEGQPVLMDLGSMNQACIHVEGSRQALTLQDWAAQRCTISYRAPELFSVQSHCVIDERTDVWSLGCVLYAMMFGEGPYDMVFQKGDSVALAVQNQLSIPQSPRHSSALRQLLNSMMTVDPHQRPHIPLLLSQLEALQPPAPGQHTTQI

For `C=CC(=O)Nc1cc(-n2c(=O)ccc3cnc4ccc(-c5ccc(NS(C)(=O)=O)cc5)cc4c32)ccc1C`, the Activity [1] was 96%, the pIC50 (BaF3 [2]) was under 5.00 and the Activity [3] was 97%. It also gave an Activity [4] of 93%, a pIC50 (BaF3 [5]) of 6.24 and a GI50 (BaF3 [5]; time 2-5 day) of 0.025 µM. The Activity (RV-1 [6]) was “Active”, the inhibition (RV-1 [7]) was “inactive” and the Activity [8] was 99%. For the same compound, the Activity [9] was 84%, the Activity [10] was 94% and the Activity (RV-1 [11]) was “Active”. The GI50 (BaF3 [12]) was 6.09 µM, the Activity [13] was 62% and the Activity [14] was 74%. For the same compound, the Activity (RV-1 [15]) was “Active”, the Activity [16] was 81% and the Activity [17] was 80%. For the same compound, the Activity (RV-1 [18]) was “Active”, the Activity [19] was 74% and the Activity [20] was 69%. For the same compound, the Activity [21] was 87%, the inhibition [22] was “inactive” and the Activity [23] was 86%. The Activity [24] was 69%, the Activity [25] was 75% and the Activity [26] was 59%. The Activity [27] was 98%, the Activity [28] was 96% and the Activity [29] was 91%. The inhibition [30] was “inactive”, the Activity [31] was 91% and the GI50 (DU-145) was 4.38 µM. It also gave an Activity [32] of 92%.
